Data on ten molecules can be found in patent US9199939B2, “Quinoline amide M1 receptor positive allosteric modulators” (Merck Sharp & Dohme Corp., priority 2009, dated 2015).

pEC50: −log10 of the molar value.

In the first experiment the target is T1, acetylcholine muscarinic M1 receptor (Homo sapiens, UniProt P11229).
T1 construct: expressed in transfected cells; host or cells: CHOnfat (CHO cells; also called CHOK1/hM1)
T1 sequence (P11229 1-460): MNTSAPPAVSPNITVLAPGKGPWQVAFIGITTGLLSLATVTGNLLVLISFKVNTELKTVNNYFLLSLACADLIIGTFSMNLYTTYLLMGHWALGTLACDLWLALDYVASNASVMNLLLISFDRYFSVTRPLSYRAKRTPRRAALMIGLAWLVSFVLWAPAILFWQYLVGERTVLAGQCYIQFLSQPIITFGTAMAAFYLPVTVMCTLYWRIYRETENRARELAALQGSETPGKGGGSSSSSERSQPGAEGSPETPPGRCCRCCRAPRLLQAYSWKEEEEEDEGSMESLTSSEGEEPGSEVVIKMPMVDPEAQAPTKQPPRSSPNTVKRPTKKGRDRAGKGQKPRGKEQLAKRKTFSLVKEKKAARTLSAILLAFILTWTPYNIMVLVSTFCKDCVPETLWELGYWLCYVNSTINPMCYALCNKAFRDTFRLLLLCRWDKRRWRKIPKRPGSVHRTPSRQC
Kind of experiment: Muscarinic M1 FLIPR intracellular calcium assay for positive allosteric modulators. It is filed as cell-based.
Details: not given
The method, then: The assay studies the effect of one or several concentrations of test compounds on basal or acetylcholine-stimulated Ca^2+ levels using FLIPR.
Compounds are prepared and subjected to a preincubation period of 4 min. Thereafter, a single EC20 concentration of acetylcholine is added to each well (3 nM final). The intracellular Ca^2+ level of each sample is measured and compared to an acetylcholine control to determine any modulatory activity.
Cells: CHOnfat/hM1, hM2, hM3 or hM4 cells are plated 24 hr before the assay at a density of 18,000 cells/well (100 μL) in a 384 well plate. CHOnfat/hM1 and CHOnfat/hM3 Growth Medium: 90% DMEM (Hi Glucose); 10% HI FBS; 2 mM L-glutamine; 0.1 mM NEAA; Pen-Strep; and 1 mg/ml Geneticin, are added. For M2Gqi5CHOnfat and M4Gqi5CHOnfat cells, an additional 600 ug/ml hygromycin is added.
Equipment: 384 well plate, 120 μL addition plate; 96-well Whatman 2 ml Uniplate Incubator, 37° C., 5% CO2; Skatron EMBLA-384 Plate Washer; Multimek Pipetting System; Genesis Freedom 200 System; Mosquito System; Temo Nanolitre Pipetting System; and FLIPR^384 Fluorometric Imaging Plate Reader System are used.
Buffers. Assay Buffer: Hanks Balanced Salt Solution, with 20 mM Hepes, 2.5 mM Probenecid (Sigma P-8761) first dissolved in 1 N NaOH, 1% Bovine Serum Albumin (Sigma A-9647). Dye Loading Buffer: Assay Buffer plus 1% Fetal Bovine Serum and Fluo-4AM/Pluronic Acid Mixture. 2 mM Fluo-4AM ester stock in DMSO (Molecular Probes F-14202) Concentration of 2 μM in buffer for a final concentration of 1 μM in Assay. 20% Pluronic Acid Solution stock, with concentration of 0.04% in Buffer, 0.02% in Assay.
65 μL of 2 mM Fluo-4AM are mixed with 130 μL of 20% Pluronic Acid. The resulting solution and 650 μL FBS is added to the assay buffer for a total volume of 65 mL. Positive Controls: 4-Br-A23187: 10 mM in DMSO; final concentration 10 μM. Acetylcholine: 10 mM in water, working stock at both 20 μM and 30 μM in assay buffer, final concentration of 10 μM. This is used to check the maximum stimulation of the CHOK1/hM1 cells. 20 μM (2×) acetylcholine is added in the preincubation part of the assay, and the 30 μM (3×) stock is added in the second part. (EC20)Acetylcholine: 10 mM in water, working stock of 9 nM (3×), and final concentration in assay is 3 nM. This is used after the preincubation with test compounds. Addition of the EC20 Acetylcholine to each well with a test compound will ascertain any modulator activity. 24 wells contain 3 nM Acetylcholine alone as a control.
Determining Activity of Putative Compounds:
Screening Plate Compounds are titrated in 96-well plates (columns 2-11), 100% DMSO, started at a concentration of 15 mM (150× stock concentration), and 3-fold serial dilutions using Genesis Freedom200 System. Four 96-well plates are combined into a 384-well plate using Mosquito Nanolitre Pipetting System by transferring 1 μl of serial diluted compounds to each well, and 1 mM acetylcholine (100× stock concentration) were added as a control. Using Temo, 49 μl assay buffer is added to each well of the 384-well plate right before assay.
In a 96-well Whatman 2 ml Uniplate, 9 nM Acetylcholine (3×) is pipetted into wells corresponding to the screening compounds, and into control wells. The 30 μM acetylcholine control (3×) is added into control wells, and the 3× agonist plate is transferred into a 384 well plate.
Cells are washed three times with 100 μL of buffer, leaving 30 μL of buffer in each well. Using Multimek, 30 μL of Dye Loading Buffer is added into each well and incubated at 37° C., 5% CO2 for up to one hr.
After 60 min, the cells are washed three times with 100 μL of buffer, leaving 30 μL of buffer in each well. The cell plate, screening plate, and agonist addition plates are placed on the platform in the FLIPR and the door closed. A signal test to check background fluorescence and basal fluorescence signal is performed. Laser intensity is adjusted if necessary. […]
As for `COc1ccc(Cc2cc(C(=O)N[C@H]3CCOC[C@@H]3O)nc3c(F)cccc23)cn1` [Example 19, 8-Fluoro-N-[(3R,4S)-3-hydroxytetrahydro-2H-pyran-4-yl]-4-[(6-methoxypyridin-3-yl)methyl]quinoline-2-carboxamide], the pEC50 is 7.72.

The experiment is the same for the next values; noted with them: IP = inflection point calculated from FLIPR values; CHOnfat/hM1 cells; 4 min preincubation, then EC20 acetylcholine (3 nM final); read-out: IP Value.
In the case of `COc1ccc(C(F)c2cc(C(=O)N[C@H]3CCOC[C@@H]3O)nc3ccccc23)cn1` (stereo partly drawn) [Example 15, 4-[Fluoro(6-methoxypyridin-3-yl)methyl]-N-[(3R,4S)-3-hydroxytetrahydro-2H-pyran-4-yl]quinoline-2-carboxamide hydrate], the pEC50 was 7.28. With `O=C(N[C@H]1CCOC[C@@H]1O)c1cc(Cc2ccc(Cl)nc2)c2cccc(F)c2n1` [Example 16, 4-[(6-Chloropyridin-3-yl)methyl]-8-fluoro-N-[(3R,4S)-3-hydroxytetrahydro-2H-pyran-4-yl]quinoline-2-carboxamide], the pEC50 was 7.66. On the same count and under the same terms, under `O=C(N[C@H]1CCOC[C@@H]1O)c1cc(Cc2ccc(C(F)F)nc2)c2cccc(F)c2n1` [Example 17, 4-{[6-(Difluoromethyl)pyridin-3-yl]methyl}-8-fluoro-N-[(3R,4S)-3-hydroxytetrahydro-2H-pyran-4-yl]quinoline-2-carboxamide] stands 7.74; under `COc1ccc(C(F)c2cc(C(=O)N[C@H]3CCOC[C@@H]3O)nc3c(OC)cccc23)cn1` (stereo partly drawn) [Example 18, 4-[Fluoro(6-methoxypyridin-3-yl)methyl]-N-[(3R,4S)-3-hydroxytetrahydro-2H-pyran-4-yl]-8-methoxyquinoline-2-carboxamide], 6.61; under `O=C(N[C@H]1CCOC[C@@H]1O)c1cc(Cc2ccc(O)nc2)c2cccc(F)c2n1` [Example 20, 8-Fluoro-4-[(6-hydroxypyridin-3-yl)methyl]-N-[(3R,4S)-3-hydroxytetrahydro-2H-pyran-4-yl]quinoline-2-carboxamide], 7.19. On to `COc1ccc(Cc2cc(C(=O)N[C@H]3CCOC[C@@H]3O)nc3c(F)cccc23)c[n+]1[O-]` [Example 21, 8-Fluoro-N-[(3R,4S)-3-hydroxytetrahydro-2H-pyran-4-yl]-4-[(6-methoxy-1-oxidopyridin-3-yl)methyl]quinoline-2-carboxamide], for which the pEC50 is 6.68. Still for that read-out and setting: under `COc1cc(Cc2cc(C(=O)N[C@H]3CCOC[C@@H]3O)nc3c(F)cccc23)ccn1` [Example 22, 8-Fluoro-N-[(3R,4S)-3-hydroxytetrahydro-2H-pyran-4-yl]-4-[(2-methoxypyridin-4-yl)methyl]quinoline-2-carboxamide] stands 7.57. On the same count and under the same terms, the same measure for `COc1cc(Cc2cc(C(=O)N[C@H]3CCOC[C@@H]3O)nc3c(F)cccc23)cc[n+]1[O-]` [Example 23, 8-Fluoro-N-[(3R,4S)-3-hydroxytetrahydro-2H-pyran-4-yl]-4-[(2-methoxy-1-oxidopyridin-4-yl)methyl]quinoline-2-carboxamide]: 6.39; for `COc1ccc(Cc2cc(C(=O)N[C@H]3CCOC[C@@H]3O)nc3c(F)ccc(F)c23)cn1` [Example 24, 5,8-Difluoro-N-[(3R,4S)-3-hydroxytetrahydro-2H-pyran-4-yl]-4-[(6-methoxypyridin-3-yl)methyl]quinoline-2-carboxamide]: 7.48.
